We go through 9 molecules from PMC5783350, “Development of an activity-based probe for acyl-protein thioesterases” (PLoS ONE, 2018).

The structures appear in SMILES notation. Where “and” joins values, the source holds several entries; their conditions need not be identical. Equal entries are not always repeated.

In assay [1] the target is T1, HsAPT1 (Homo sapiens, UniProt O75608). Nature of the assay: 4-NPO esterase activity assay, recombinant HsAPT1. It counts as biochemical. On the set-up: made in house; host or cells: E. coli BL21(DE3)pLysS. The source says: (§1) We recently performed a phenotypic screen to identify small-molecule modulators of host cell invasion by the apicomplexan parasite T. gondii. The small-molecules in this directed screen were expected to covalently modify protein targets in an activity-dependent manner. Unexpectedly, this screen not only identified inhibitors of parasite invasion, but also compounds that enhanced host cell invasion. Enhancer compounds were all structurally similar substituted chloroisocoumarins. Using an alkynylated version of the lead enhancer compound (JCP174), we identified the phenotypically relevant target of the enhancer phenotype as the previously uncharacterized thioesterase TgPPT1 [12]. TgPPT1 is the orthologue of the human depalmitoylase HsAPT1, sharing 33% identity by BLAST analysis. […] Therefore, we screened a focused library of substituted chloroisocoumarins to identify compounds that inhibited HsAPT1 and HsAPT2 activity. […] To measure the enzymatic activity of recombinant HsAPT1 and HsAPT2, we used the previously reported substrate, 4-nitrophenyl octanoate (4-NPO), in which enzymatic cleavage of the ester linkage can be measured by UV/Vis spectroscopy upon release of 4-nitrophenolate (Fig 1A). Using this activity readout, we performed our screen with recombinant HsAPT1 and HsAPT2 using a focused library of 100 substituted chloroisocoumarins (Fig 1B). Compounds that produced >50% inhibition of either HsAPT1 or HsAPT2 activity relative to the DMSO control at 10 μM were then re-screened across a range of concentrations to determine in vitro IC50 values (Fig 1C and 1D). Compounds with IC50 values <10 μM for both HsAPT1 and HsAPT2 were scored as hits. According to these criteria, our screen achieved a hit rate of 7% (Table 1). […] We next tested the potency of JCP174 for both enzymes with increasing preincubation times from 30 minutes to 6 hours. The potency of JCP174 increased with longer pre-incubation times for both targets, indicating an irreversible covalent mechanism (S1 Table). […] (S1 Table).
T1 sequence (O75608 whole entry): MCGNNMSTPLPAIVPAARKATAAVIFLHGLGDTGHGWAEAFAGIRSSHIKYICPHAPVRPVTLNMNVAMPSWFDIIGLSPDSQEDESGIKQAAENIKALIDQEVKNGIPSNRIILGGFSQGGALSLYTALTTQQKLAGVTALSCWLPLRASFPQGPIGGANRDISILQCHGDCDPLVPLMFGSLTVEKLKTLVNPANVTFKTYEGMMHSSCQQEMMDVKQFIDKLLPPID
(§2) The 4-nitropenhyl octanoate (4-NPO) activity assay was modified from Dekker et al.. Briefly, 50 μL 20 mM HEPES, 150 mM NaCl, 0.01% v/v Triton-X 100, pH 7.4 buffer with the indicated concentrations of inhibitor or buffer control was added to 96-well plates. To each well, 30 μL of recombinantly expressed enzyme diluted to 1 μM in 20 mM HEPES, 150 mM NaCl, 0.01% v/v Triton-X 100, pH 7.4 buffer was added. The inhibitor and enzyme reaction was incubated at 37°C for 30 minutes before 20 μL of 4-NPO (3.0 mM) was added to the reaction in 20 mM HEPES, 150 mM NaCl, 0.25% v/v Triton-X 100, pH 7.4 buffer. The reaction progress was measured using a Cytation 3 plate reader at 401 nm at 1-minute intervals for 40 minutes.

Assay [2] deals with T2, HsAPT2 (Homo sapiens, UniProt O95372). Nature of the assay: 4-NPO esterase activity assay, recombinant HsAPT2. It counts as biochemical. More on the design: made in house; host or cells: E. coli BL21(DE3)pLysS.
T2 sequence (O95372 whole entry): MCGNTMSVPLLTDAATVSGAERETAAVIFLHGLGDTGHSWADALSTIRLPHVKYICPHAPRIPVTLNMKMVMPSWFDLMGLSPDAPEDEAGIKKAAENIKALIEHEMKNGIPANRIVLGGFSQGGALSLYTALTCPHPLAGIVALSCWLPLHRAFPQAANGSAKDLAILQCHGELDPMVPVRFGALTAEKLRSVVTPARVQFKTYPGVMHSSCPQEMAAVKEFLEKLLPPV
Description: as §1, §2

For assay [3], the system named is TgPPT1. Nature of the assay: In-gel labeling of recombinant TgPPT1 with JCP174-BT. It counts as binding, Toxoplasma gondii. The conditions noted are these: 1 μM probe.
The subject of assay [4] is TgPPT1. It counts as cell-based, Toxoplasma gondii.
Assay [5] concerns HsAPT1 and HsAPT2 in intact U-2 OS cells. Nature of the assay: Intact mammalian cell labeling, in-gel fluorescence. Format: cell-based, human.
The target of assay [6] is T1, HsAPT1. Nature of the assay: FP-rhodamine ABP competition labeling, U-2 OS (HsAPT1 band). It counts as cell-based. The note with it: intact U-2 OS cells pretreated 1 hour, washed, lysates labeled with FP-rho.
The target in assay [7] is T2, HsAPT2. Nature of the assay: FP-rhodamine ABP competition labeling, U-2 OS (HsAPT2 band). It counts as cell-based. The note with it: intact U-2 OS cells pretreated 1 hour, washed, lysates labeled with FP-rho.
The mark [8] stands for this setting: rHsAPT1, 4-NPO substrate, 30 minutes preincubation at 37°C.
[9] abbreviates: rHsAPT2, 4-NPO substrate, 30 minutes preincubation at 37°C.

A word on the IC50: it is the concentration needed to halve the response being measured.

Regarding `CC(CBr)Oc1oc(=O)c2cc(N)ccc2c1Cl` (stereo not shown) [JCP362], the 50% inhibitory concentration (IC50) is 1.2 µM in assay [1] (setting [8]) and 0.95 µM in assay [2] (setting [9]).
With `O=c1oc(Cl)c(Cl)c2ccccc12` [DCI, dichloroisocoumarin, reference compound], the half-maximal inhibitory concentration (IC50) came to 1.7 µM in assay [1] (setting [8]) and 2.7 µM in assay [2] (setting [9]).
As for `C#CCCOc1oc(=O)c2cc(N)ccc2c1Cl` [JCP174-alk, 3-(3-Butynoxy)-4-chloro-7-amino-isocoumarin], the IC50 was 0.925 µM and 0.93 µM in assay [1] (setting [8]); 0.498 µM and 0.5 µM in assay [2] (setting [9]).
Consider `O=c1oc(OCCBr)c(Cl)c2ccc(NC(=S)Nc3ccccc3)cc12` [JCP343], for which the IC50 was found to be 1.4 µM in assay [1] (setting [8]) and 9.1 µM in assay [2] (setting [9]).
Regarding `O=C(O)c1cccc(NC(=S)Nc2ccc3c(Cl)c(OCCBr)oc(=O)c3c2)c1` [JCP342], the IC50 in assay [1] (setting [8]) was determined as 1.5 µM; in assay [2] (setting [9]), 5.2 µM.
Regarding `COc1ccc(-c2ccc3n2[B-](F)(F)[N+]2=C(C)C(CCC(=O)NCCCn4cc(CCOc5oc(=O)c6cc(N)ccc6c5Cl)nn4)=C(C)C2=C3)cc1` [JCP174-BODIPY TMR], in assay [3] (recombinant TgPPT1 S128A), the “Covalent labeling of active site mutant TgPPT1 S128A” value is listed as “did not label the active site mutant”. The “Covalent labeling of wild-type TgPPT1” value in assay [3] (recombinant TgPPT1 WT) is recorded as “covalently modified”. In addition, in assay [4], the “Labeling of TgPPT1 in intact T. gondii tachyzoites” value was “strong labeling of TgPPT1 in intact cells”. In assay [5], the “Labeling of HsAPT1 and HsAPT2 in intact U-2 OS cells” value was “labeled APT1 and APT2 in intact cells”. Besides, the figures for the IC50 in assay [1] (setting [8]) and in assay [2] (setting [9]) were 3 µM and 1.8 µM, respectively.
For `CCOc1oc(=O)c2cc(NC(=S)Nc3ccccc3)ccc2c1Cl` [JCP154], the half-inhibitory concentration (IC50) in assay [1] (setting [8]) was 1.8 µM; in assay [2] (setting [9]) it was 2.9 µM.
Turning to `O=C(O)c1ccc(NC(=S)Nc2ccc3c(Cl)c(OCCBr)oc(=O)c3c2)cc1` [JCP345], the 50% inhibitory concentration (IC50) came to 7.1 µM in assay [1] (setting [8]) and 8.5 µM in assay [2] (setting [9]).
In the case of `CCCCCCCCCC[C@@H]1C(=O)O[C@H]1CCc1ccc(OC)c(OC)c1` [Palmostatin B, palmostatin B, reference compound], the “Competition for FP-rho labeling of HsAPT1” value in assay [6] is “competed for the same two species”. Further, the “Competition for FP-rho labeling of HsAPT2” value in assay [7] is on record as “competed for the same two species”. Further, the 50% inhibitory concentration (IC50) is 2.5 µM in assay [1] (preincubation time 2 hr); 6.8 µM in assay [1] (preincubation time 6 hr); 0.31 µM in assay [1] (setting [8]); 0.7 µM in assay [2] (preincubation time 2 hr); 1.6 µM in assay [2] (preincubation time 6 hr); 0.32 µM in assay [2] (setting [9]).
